Where a name gives a salt, the structure may show the parent alone.
Assays:
CDK7 = biological target: T1, CDK7 (Homo sapiens, UniProt P50613); experiment: Adapta kinase assay (Life Technologies) against CDK7, co-factors cyclin H and MNAT1; format: biochemical; conditions: read-out: CDK7 Inhibition
T1 construct: purchased Life Technologies (Adapta kinase assay service)
Description: Compounds of the invention were assayed for activity against CDK7 at Life Technologies™ (Grand Island, N.Y.) using their commercially available Adapta® kinase assay services. […] Details of the assay, including the substrate used for CDK7 kinase, are available on the Life Technologies web site (http://www.lifetechnologies.com/us/en/homellife-science/drug-discovery/target-and-lead-identification-and-validation/kinasebiology/kinase-activity-assays.html).
The co-factors used for the assay were cyclin H and MNAT1.

Jurkat = experiment: Inhibition of cell proliferation, CellTiter-Glo, 72 hour; format: cell-based; conditions: Homo sapiens, Jurkat, 72 h, Blood cancer cell line; 72 hour; read-out: Inhibition of Proliferation of Jurkat Cells
Description: The following cancer cell lines were tested with the media conditions indicated: […]

T1 sequence (P50613 whole entry): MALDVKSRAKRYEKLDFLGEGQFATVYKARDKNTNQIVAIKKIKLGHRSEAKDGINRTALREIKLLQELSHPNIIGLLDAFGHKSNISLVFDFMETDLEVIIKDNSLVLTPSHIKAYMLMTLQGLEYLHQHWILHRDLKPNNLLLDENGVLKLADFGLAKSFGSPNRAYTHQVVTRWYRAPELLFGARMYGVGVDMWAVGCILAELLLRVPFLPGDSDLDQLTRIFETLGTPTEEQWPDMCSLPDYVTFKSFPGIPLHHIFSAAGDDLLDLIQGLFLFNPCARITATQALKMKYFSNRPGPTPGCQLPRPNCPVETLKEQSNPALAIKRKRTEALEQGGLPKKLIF
T1 sequence (P51946 whole entry partner): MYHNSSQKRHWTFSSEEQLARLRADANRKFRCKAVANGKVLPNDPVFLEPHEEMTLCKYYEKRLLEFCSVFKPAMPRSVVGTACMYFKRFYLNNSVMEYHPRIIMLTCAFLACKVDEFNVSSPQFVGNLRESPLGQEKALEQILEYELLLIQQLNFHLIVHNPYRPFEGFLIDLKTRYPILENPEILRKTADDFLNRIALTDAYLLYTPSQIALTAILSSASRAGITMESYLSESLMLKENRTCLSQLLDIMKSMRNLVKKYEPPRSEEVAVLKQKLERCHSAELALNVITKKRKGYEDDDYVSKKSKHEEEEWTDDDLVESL
T1 sequence (P51948 whole entry partner): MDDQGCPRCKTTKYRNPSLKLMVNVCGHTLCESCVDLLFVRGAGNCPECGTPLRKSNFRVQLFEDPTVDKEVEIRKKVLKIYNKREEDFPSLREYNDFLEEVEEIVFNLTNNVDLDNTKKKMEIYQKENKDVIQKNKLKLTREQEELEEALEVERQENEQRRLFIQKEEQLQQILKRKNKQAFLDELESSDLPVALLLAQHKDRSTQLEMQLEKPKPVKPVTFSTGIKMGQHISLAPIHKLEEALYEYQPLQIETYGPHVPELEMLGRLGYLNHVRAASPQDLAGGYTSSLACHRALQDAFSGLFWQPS

| IC50 (CDK7) [nM] | IC50 (Jurkat) [nM] | SMILES |
| --- | --- | --- |
| < 100 | < 500 | N#Cc1cnc(N[C@@H]2CCN(C(=O)c3ccc(NC(=O)/C=C/CN4CCCC4)cc3)C2)nc1-c1c[nH]c2ccccc12 [Compound 108, (E)-N-(4-((R)-3-(5-cyano-4-(1H-indol-3-yl)pyrimidin-2-ylamino)pyrrolidine-1-carbonyl)phenyl)-4-(pyrrolidin-1-yl)but-2-enamide] |
| < 100 | 500 to 5000 | NCC(=O)Nc1cccc(Nc2ncc(Cl)c(-c3c[nH]c4ccccc34)n2)c1 [Compound 307, 2-amino-N-(3-(5-chloro-4-(1H-indol-3-yl)pyrimidin-2-ylamino)phenyl)acetamide.TFA] |
| < 100 | 500 to 5000 | N#Cc1cnc(N[C@@H]2CCN(C(=O)c3ccc(N)cc3)C2)nc1-c1c[nH]c2ccccc12 [Compound 37, 2-((R)-1-(4-aminobenzoyl)pyrrolidin-3-ylamino)-4-(1H-indol-3-yl)pyrimidine-5-carbonitrile] |
| < 100 | 500 to 5000 | CN(C)CC=CC(=O)Nc1ccc(C(=O)NC2CNCC(Nc3ncc(Cl)c(-c4c[nH]c5ccccc45)n3)C2)cc1 (racemic) [Compound 149, N-((+/−cis)-5-((5-chloro-4-(1H-indol-3-yl)pyrimidin-2-yl)amino)piperidin-3-yl)-4-((E)-4-(dimethylamino)but-2-enamido)benzamide] |
| 100 to 1000 | < 500 | Cc1noc(C)c1-c1nc(N[C@H]2CC[C@@H](NC(=O)c3ccc(NC(=O)/C=C/CN(C)C)cc3)C2)ncc1Cl (racemic) [Compound 122, N-((1R,3S)-3-((5-chloro-4-(3,5-dimethylisoxazol-4-yl)pyrimidin-2-yl)amino)cyclopentyl)-4-((E)-4-(dimethylamino)but-2-enamido)benzamide and N-((1S,3R)-3-((5-chloro-4-(3,5-dimethylisoxazol-4-yl)pyrimidin-2-yl)amino)cyclopentyl)-4-((E)-4-(dimethylamino)but-2-enamido)benzamide] |
| > 1000 | > 5000 | CC(C)(CNC(=O)c1ccc(NC(=O)/C=C/CO)cc1)CNc1ncc(Cl)c(-c2c[nH]c3ccccc23)n1 [Compound 132, (E)-N-(3-(5-chloro-4-(1H-indol-3-yl)pyrimidin-2-ylamino)-2,2-dimethylpropyl)-4-(4-hydroxybut-2-enamido)benzamide] |
| < 100 | 500 to 5000 | CN(C)C/C=C/C(=O)NCC(=O)Nc1cccc(Nc2ncc(Cl)c(-c3c[nH]c4ccccc34)n2)c1 [Compound 137, (E)-N-(2-(3-(5-chloro-4-(1H-indol-3-yl)pyrimidin-2-ylamino)phenylamino)-2-oxoethyl)-4-(dimethylamino)but-2-enamide] |
| < 100 | < 500 | Cc1cc(NC(=O)/C=C/CN(C)C)ccc1C(=O)N1CCC(Nc2ncc(Cl)c(-c3c[nH]c4ccccc34)n2)CC1 [Compound 114, (E)-N-(4-(4-(5-chloro-4-(1H-indol-3-yl)pyrimidin-2-ylamino)piperidine-1-carbonyl)-3-methylphenyl)-4-(dimethylamino)but-2-enamide] |
| < 100 | 500 to 5000 | Nc1ccc(C(=O)N2CC[C@@H](Nc3ncc(Cl)c(-c4c[nH]c5ccccc45)n3)C2)cc1 [Compound 35, (4-aminophenyl)((R)-3-(5-chloro-4-(1H-indol-3-yl)pyrimidin-2-ylamino)pyrrolidin-1-yl)methanone] |
| 100 to 1000 | > 5000 | Cc1cc(N)ccc1C(=O)N1CCC(Nc2ncc(Cl)c(-c3c[nH]c4ccccc34)n2)CC1 [Compound 63, (4-amino-2-methylphenyl)(4-(5-chloro-4-(1H-indol-3-yl)pyrimidin-2-ylamino)piperidin-1-yl)methanone] |
| < 100 | < 500 | CN(C)C/C=C/C(=O)Nc1ccc(C(=O)N[C@@H]2CC[C@H](Nc3ncc(Cl)c(-c4c[nH]c5ccccc45)n3)C2)cc1 [Compound 129, N-((1R,3S)-3-((5-chloro-4-(1H-indol-3-yl)pyrimidin-2-yl)amino)cyclopentyl)-4-((E)-4-(dimethylamino)but-2-enamido)benzamide] |
| 100 to 1000 | 500 to 5000 | Nc1ccc(CN2CCC(Nc3ncc(Cl)c(-c4c[nH]c5ccccc45)n3)CC2)cc1 [Compound 48, N-(1-(4-aminobenzyl)piperidin-4-yl)-5-chloro-4-(1H-indol-3-yl)pyrimidin-2-amine.HCl] |
| < 100 | < 500 | Cc1cc(C(=O)N2CCC(Nc3ncc(Cl)c(-c4c[nH]c5ccccc45)n3)CC2)ccc1NC(=O)/C=C/CN(C)C [Compound 113, (E)-N-(4-(4-(5-chloro-4-(1H-indol-3-yl)pyrimidin-2-ylamino)piperidine-1-carbonyl)-2-methylphenyl)-4-(dimethylamino)but-2-enamide] |
| < 100 | 500 to 5000 | CN(C)C/C=C/C(=O)Nc1ccc(S(=O)(=O)N2CC[C@@H](Nc3ncc(Cl)c(-c4c[nH]c5ccccc45)n3)C2)cc1 [Compound 105, (E)-N-(4-((R)-3-(5-chloro-4-(1H-indol-3-yl)pyrimidin-2-ylamino)pyrrolidin-1-ylsulfonyl)phenyl)-4-(dimethylamino)but-2-enamide] |
| < 100 | < 500 | CN(C)C/C=C/C(=O)Nc1ccc(C(=O)N2CCC(Nc3ncc(Cl)c(-c4c[nH]c5ccccc45)n3)CC2)c(F)c1 [Compound 115, (E)-N-(4-(4-(5-chloro-4-(1H-indol-3-yl)pyrimidin-2-ylamino)piperidine-1-carbonyl)-3-fluorophenyl)-4-(dimethylamino)but-2-enamide] |
| < 100 | < 500 | CN(C)C/C=C/C(=O)Nc1ccc(C(=O)N2CCC(Nc3ncc(Cl)c(-c4c[nH]c5ccccc45)n3)CC2)cc1F [Compound 112, (E)-N-(4-(4-(5-chloro-4-(1H-indol-3-yl)pyrimidin-2-ylamino)piperidine-1-carbonyl)-2-fluorophenyl)-4-(dimethylamino)but-2-enamide] |
| 100 to 1000 | 500 to 5000 | COc1ccc(Cn2c(-c3ccc(NC(=O)/C=C/CN(C)C)cc3)nc3cc(Nc4ncc(Cl)c(-c5c[nH]c6ccccc56)n4)ccc32)cc1 [Compound 133, (E)-N-(4-(5-(5-chloro-4-(1H-indol-3-yl)pyrimidin-2-ylamino)-1-(4-methoxybenzyl)-1H-benzo[d]imidazol-2-yl)phenyl)-4-(dimethylamino)but-2-enamide] |
| < 100 | < 500 | C=CC(=O)Nc1ccc(NC(=O)[C@H]2CNCC(Nc3ncc(Cl)c(-c4c[nH]c5ccccc45)n3)C2)cc1 (mixture of isomers) [Compound 154, (+/−trans)-N-(4-acrylamidophenyl)-5-((5-chloro-4-(1H-indol-3-yl)pyrimidin-2-yl)amino)piperidine-3-carboxamide] |

| SMILES | IC50 (CDK7) [nM] | IC50 (Jurkat) [nM] |
| --- | --- | --- |
| Nc1ccc(C(=O)N2[C@@H]3CC[C@H]2C[C@@H](Nc2ncc(Cl)c(-c4c[nH]c5ccccc45)n2)C3)cc1 [Compound 302, (4-aminophenyl)((1R,3R,5S)-3-(5-chloro-4-(1H-indol-3-yl)pyrimidin-2-ylamino)-8-aza-bicyclo[3.2.1]octan-8-yl)methanone] | > 1000 | 500 to 5000 |

Reference: US20190292167A1, “HETEROAROMATIC COMPOUNDS USEFUL FOR THE TREATMENT OF PROLIFERATIVE DISEASES” (Syros Pharmaceuticals, Inc., priority 2013, published 2019)
